Values of other authors, collected in patent publication US20170128362A1, “APPLICATION OF LARGE-DOSE GLYCERINUM IN FREEZE-THAWING TOLERABLE LIPID EMULSION” (Shengyang Pharmaceutical University, priority 2014, published 2017).

Details: 0.005% sodium oleate

CCCCCCCC/C=C\CCCCCCCC(=O)[O-].[Na+] [sodium oleate]
hemolysis: 100%
